Values quoted from earlier work in US7785629B2, “Bicalutamide-adsorbates, process for preparing same, and pharmaceutical compositions thereof” (Helm AG, priority 2005, dated 2010).

Conditions: water and aqueous buffers at various pH values

Solubility: sparingly soluble
Structure (SMILES): CC(O)(CS(=O)(=O)c1ccc(F)cc1)C(=O)Nc1ccc(C#N)c(C(F)(F)F)c1 (stereo not shown) [Bicalutamide, N-[4′-cyano-3′-trifluoromethyl-phenyl]-3-[4″-fluorophenylsulfonyl]-2-hydroxy-2-methyl-propionamide]
